In patent US6461859B1, “Enzymatic oxidation process for desulfurization of fossil fuels” (Instituto Mexicano del Petroleo, priority 1999, dated 2002):

Assays:
[1] = target: T1, poly(ethylene)glycol-modified cytochrome c (PEG-Cyt) (Equus caballus, UniProt P00004); test: Oxidation of low-sulfur diesel oil enriched with dibenzothiophene (gas chromatogram); assay type: biochemical; details: desulfurized diesel oil enriched with 10 g/l DBT, PEG-Cyt and hydrogen peroxide, GC FID/FPD
T1 construct: made in house
T1 sequence (P00004 2-105 limits assumed): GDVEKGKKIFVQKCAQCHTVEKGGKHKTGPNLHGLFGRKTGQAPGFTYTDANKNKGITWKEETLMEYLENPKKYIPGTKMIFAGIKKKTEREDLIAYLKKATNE
Description: Desulfurized diesel oil (<0.05% of sulfur) is enriched with 10 g/l of DBT and treat with poly(ethylene)glycol-modified cytochrome c (PEG-Cyt) and hydrogen peroxide. […] DBT sulfoxide is an unstable compound which may be oxidized to form DBT sulfone. Cytochrome c is a biocatalyst able to oxidize thiophenes and organosulfides [Vazquez-Duhalt et al Enzyme Microb. Technol. 15 (1993) 494] and has several advantages when compared with other hemoenzymes. […] Technol. 15 (1993) 494; Vazquez-Duhalt et al Enzyme Microb. Technol. 15 (1993) 936.]. In addition, this biocatalyst can be modified by site-directed mutagenesis [E. Torres et al. Enzyme Microb. Technol. 17 (1995) 1014.] and by chemical modification [Tinoco and Vazquez-Duhalt. Enzyme Microb. Technol. 22 (1998) 8.] to improve both its catalytic activity and range of substrates. PEG-modified enzymes are soluble in organic solvents and their activity in organic solvents is increased because of the reduction of mass transfer limitations in the system [Vazquez-Duhalt et al. Enzyme Microb. Technol. 14 (1992) 837].

[2] = Biocatalytic oxidation of primary diesel fuel followed by distillation; details: chloroperoxidase treatment of primary diesel oil followed by distillation
Protocol: After biocatalytic oxidation of the fossil fuel a second process of separation of oxidized organosulfur compounds is envisaged. Because the boiling points of sulfur compounds are incersed after biocatlytic oxidation to sulfoxides, it is possible to remove them by a single distillation. Oxidized sulfur compounds can be removed by decreasing the final distillation point. When primary diesel fuel containing 1.6% sulfur is distilled in order to obtain a 100% distillation at a temperature 50° C. lower than the original fraction, it produces a diesel fuel containing 1.27% of sulfur and 83% of the original hydrocarbons. […] Thus, a biocatalytic treatment of primary diesel oil with chloroperoxidase from Caldariomyces fumago, followed by a distillation is able to reduce the sulfur content by 80%.

Molecule	biocatalytic transformation of DBT [1]	reduction of sulfur content [2]
c1ccc2c(c1)sc1ccccc12 [Dibenzothiophene]	transformed to DBT sulfoxide	
chloroperoxidase: chloroperoxidase (EC 1.11.1.10) from Caldariomyces fumago, hemoprotein biocatalyst (protein, UniProt P04963 21-319, looked up) Chloroperoxidase: QEPGSGIGYPYDNNTLPYVAPGPTDSRAPCPALNALANHGYIPHDGRAISRETLQNAFLNHMGIANSVIELALTNAFVVCEYVTGSDCGDSLVNLTLLAEPHAFEHDHSFSRKDYKQGVANSNDFIDNRNFDAETFQTSLDVVAGKTHFDYADMNEIRLQRESLSNELDFPGWFTESKPIQNVESGFIFALVSDFNLPDNDENPLVRIDWWKYWFTNESFPYHLGWHPPSPAREIEFVTSASSAVLAASVTSTPSSLPSGAIGPGAEAVPLSFASTMTPFLLATNAPYYAQDPTLGPND		80%
